From patent publication US8178530B2, “Imidazolopyrazine compounds useful for the treatment of degenerative and inflammatory diseases” (Janssen Pharmaceutica NV, priority 2006, dated 2012)

Tests used:
[1] = biological target: T1, MAPKAPK5 (Homo sapiens, UniProt Q8IW41); assay: MAPKAP-K5 assay (FlashPlate, 33P-ATP); format: biochemical; settings: 0.6 μM ATP, 30 minutes at room temperature
T1 construct: 1 mU MAPKAP-K5
T1 sequence (Q8IW41 1-473): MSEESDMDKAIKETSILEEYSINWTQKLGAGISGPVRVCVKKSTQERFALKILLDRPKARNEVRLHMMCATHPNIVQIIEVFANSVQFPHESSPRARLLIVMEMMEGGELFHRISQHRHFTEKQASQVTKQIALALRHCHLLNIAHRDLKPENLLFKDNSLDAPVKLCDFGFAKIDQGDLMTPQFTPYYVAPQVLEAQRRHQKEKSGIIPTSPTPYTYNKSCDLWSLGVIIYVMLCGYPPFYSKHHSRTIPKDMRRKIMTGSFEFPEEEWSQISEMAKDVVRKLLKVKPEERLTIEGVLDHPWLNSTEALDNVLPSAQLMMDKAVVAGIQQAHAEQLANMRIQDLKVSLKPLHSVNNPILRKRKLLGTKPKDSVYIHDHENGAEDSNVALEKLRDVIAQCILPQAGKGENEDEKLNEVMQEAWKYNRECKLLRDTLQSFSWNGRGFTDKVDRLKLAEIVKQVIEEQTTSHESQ
Procedure: 3 μM MAPKAP-K5 peptide substrate

[2] = test system: MMP1 expression by SFs; assay: 'MMP assay': MMP1 expression by 'complex trigger' activated synovial fibroblasts (MMP1 ELISA); format: cell-based, human; settings: RASFs, 48 hrs

Molecule	IC50 [1] [nM]	EC50 [2] [nM]	EC50 ([2]; Homo sapiens, Fibroblast) [nM]
4-(8-{4-[1-(2,2,2-Trifluoroethyl)piperidin-4-yl]phenylamino}imidazo[1,2-a]pyrazin-5-yl)thiophene-2-carboxylic acid amide [Compound 192]	1 to 100	501 to 1000	–
NC(=O)c1ccc(Nc2ncc(-c3cn[nH]c3)n3ccnc23)cc1 [Compound 11]	101 to 500	–	> 1000
CN1CCN(c2ccc(Nc3ncc(-c4cn[nH]c4)n4ccnc34)cc2)CC1 [Compound 14]	> 1000	–	> 1000
CCN(CC)CCNC(=O)c1ccc(Nc2ncc(-c3cn[nH]c3)n3ccnc23)cc1 [Compound 32, N-(2-Diethylamino-ethyl)-4-[5-(1H-pyrazol-4-yl)-imidazo[1,2-a]pyrazin-8-ylamino]-benzamide]	101 to 500	–	> 1000
O=C(NCc1cccnc1)c1ccc(Nc2ncc(-c3cn[nH]c3)n3ccnc23)cc1 [Compound 35]	501 to 1000	–	> 1000
NS(=O)(=O)c1ccc(Nc2ncc(-c3cn[nH]c3)n3ccnc23)cc1 [Compound 36]	101 to 500	–	> 1000
O=C(Nc1ccccc1)c1ccc(Nc2ncc(-c3cn[nH]c3)n3ccnc23)cc1 [Compound 41]	> 1000	–	> 1000
O=C(c1ccc(Nc2ncc(-c3cn[nH]c3)n3ccnc23)cc1)N1CCOCC1 [Compound 45]	501 to 1000	–	> 1000
O=C(NCCN1CCOCC1)c1ccc(Nc2ncc(-c3cn[nH]c3)n3ccnc23)cc1 [Compound 53]	101 to 500	–	> 1000
O=C(NC1CCNC1)c1ccc(Nc2ncc(-c3cn[nH]c3)n3ccnc23)cc1 (stereo not drawn) [Compound 55]	101 to 500	–	> 1000
CCNCCNC(=O)c1ccc(Nc2ncc(-c3cn[nH]c3)n3ccnc23)cc1 [Compound 56]	101 to 500	–	> 1000
CN1CCC(NC(=O)c2ccc(Nc3ncc(-c4cn[nH]c4)n4ccnc34)cc2)C1 (stereo not drawn) [Compound 64]	101 to 500	–	> 1000
CCN(CC)CCNS(=O)(=O)c1ccc(Nc2ncc(-c3cn[nH]c3)n3ccnc23)cc1 [Compound 69, N-(2-Diethylaminoethyl)-4-[5-(1H-pyrazol-4-yl)imidazo[1,2-a]pyrazin-8-ylamino]benzenesulfonamide]	101 to 500	–	> 1000
CS(=O)(=O)c1ccc(Nc2ncc(-c3cn[nH]c3)n3ccnc23)cc1 [Compound 71]	101 to 500	–	> 1000
CCN(CC)CCNC(=O)c1ccc(Nc2ncc(-c3cn[nH]c3)n3ccnc23)cc1F [Compound 82]	501 to 1000	–	> 1000
CCN(CC)CCNC(=O)c1ccc(Nc2ncc(-c3cn[nH]c3)n3ccnc23)c(F)c1 [Compound 83]	101 to 500	–	> 1000
CN(C)c1ccc(CNC(=O)c2ccc(Nc3ncc(-c4cn[nH]c4)n4ccnc34)cc2)cc1 [Compound 89]	> 1000	–	501 to 1000
O=C(NCc1ccc(O)cc1)c1ccc(Nc2ncc(-c3cn[nH]c3)n3ccnc23)cc1 [Compound 90, N-(4-Hydroxybenzyl)-4-[5-(1H-pyrazol-4-yl)imidazo[1,2-a]pyrazin-8-ylamino]benzamide]	501 to 1000	–	101 to 500
O=C(NCCc1cccnc1)c1ccc(Nc2ncc(-c3cn[nH]c3)n3ccnc23)cc1 [Compound 93]	101 to 500	–	> 1000
CCN(CC)CCNS(=O)(=O)c1ccc(Nc2ncc(-c3ccc(C(N)=O)cc3)n3ccnc23)cc1 [Compound 98]	> 1000	–	501 to 1000
CN(C)C(CNC(=O)c1ccc(Nc2ncc(-c3cc[nH]c(=O)c3)n3ccnc23)cc1)c1cccnc1 (stereo not drawn) [Compound 114]	101 to 500	–	> 1000
CNC(=O)c1ccc(-c2cnc(Nc3ccc(N4CCN(C)CC4)cc3)c3nccn23)cc1 [Compound 116]	> 1000	–	> 1000
CN1CCN(c2ccc(Nc3ncc(-c4csc(C(N)=O)c4)n4ccnc34)cc2)CC1 [Compound 118]	101 to 500	–	> 1000
Cc1[nH]ncc1-c1cnc(Nc2ccc(N3CCN(C)CC3)cc2)c2nccn12 [Compound 119, (4-(4-Methylpiperazin-1-yl)phenyl)-[5-(5-methyl-1H-pyrazol-4-yl)imidazo[1,2-a]pyrazin-8-yl]amine]	101 to 500	–	> 1000

Molecule	IC50 [1] [nM]	EC50 [2] [nM]	EC50 ([2]; Homo sapiens, Fibroblast) [nM]
Cc1cc(C(N)=O)ccc1-c1cnc(Nc2ccc(N3CCN(C)CC3)cc2)c2nccn12 [Compound 120]	> 1000	–	> 1000
CN1CCN(c2ccc(Nc3ncc(-c4ccc(C(N)=O)c(Cl)c4)n4ccnc34)cc2)CC1 [Compound 124]	> 1000	–	> 1000
CN1CCN(c2ccc(Nc3ncc(-c4ccnc(F)c4)n4ccnc34)cc2)CC1 [Compound 125, [5-(2-Fluoro-pyridin-4-yl)-imidazo[1,2-a]pyrazin-8-yl]-[4-(4-methyl-piperazin-1-yl)-phenyl]-amine]	> 1000	–	> 1000
CN1CCN(c2ccc(Nc3ncc(-c4ccc(C(N)=O)s4)n4ccnc34)cc2)CC1 [Compound 127, (4-(4-Methylpiperazin-1-yl)phenyl)-[5-(2-carboxamido-5-thienyl)imidazo[1,2-a]pyrazin-8-yl]amine]	101 to 500	–	101 to 500
CN1CCN(c2ccc(Nc3ncc(-c4ccc(C(N)=O)cn4)n4ccnc34)cc2)CC1 [Compound 128]	> 1000	–	> 1000
CN1CCN(c2ccc(Nc3ncc(-c4ccc(C(N)=O)nc4)n4ccnc34)cc2)CC1 [Compound 129, 5-{8-[4-(4-Methyl-piperazin-1-yl)-phenylamino]-imidazo[1,2-a]pyrazin-5-yl}-pyridine-2-carboxylic acid amide]	> 1000	–	> 1000
CN1CCN(c2ccc(Nc3ncc(-c4ccc(C(N)=O)cc4)n4ccnc34)cc2Cl)CC1 [Compound 136, 4-{8-[3-Chloro-4-(4-methyl-piperazin-1-yl)-phenylamino]-imidazo[1,2-a]pyrazin-5-yl}-benzamide]	101 to 500	–	> 1000
C[C@@H]1CN(C)[C@@H](C)CN1c1ccc(Nc2ncc(-c3ccc(C(N)=O)cc3)n3ccnc23)cc1 [Compound 137]	101 to 500	–	101 to 500
CN1CCN(c2ccc(Nc3ncc(-c4cscn4)n4ccnc34)cc2)CC1 [Compound 138]	> 1000	–	> 1000
CN1CCN(c2ccc(Nc3ncc(-c4ccc(C(N)=O)o4)n4ccnc34)cc2)CC1 [Compound 139, 5-{8-[4-(4-Methyl-piperazin-1-yl)-phenylamino]-imidazo[1,2-a]pyrazin-5-yl}-furan-2-carboxylic acid amide]	> 1000	–	> 1000
CN1CCN(c2ccc(Nc3ncc(-c4cc(F)c(C(N)=O)c(F)c4)n4ccnc34)cc2)CC1 [Compound 140]	101 to 500	–	> 1000
Cn1cnnc1-c1ccc(Nc2ncc(-c3ccc(C(N)=O)cc3)n3ccnc23)cc1 [Compound 141]	> 1000	–	501 to 1000
CC(C)N1CCN(c2ccc(Nc3ncc(-c4ccc(C(N)=O)cc4)n4ccnc34)cc2)CC1 [Compound 142]	> 1000	–	501 to 1000
CN1CCN(c2ccc(Nc3ncc(-c4ccc(C(N)=O)cc4)n4ccnc34)cc2)CC1 [Compound 143]	> 1000	–	501 to 1000
NC(=O)c1ccc(-c2cnc(Nc3ccc(N4CCCCC4)cc3)c3nccn23)cc1 [Compound 144]	> 1000	–	101 to 500
CN1CCN(c2ccc(Nc3ncc(-c4cc(C(N)=O)cs4)n4ccnc34)cc2)CC1 [Compound 145, 5-{8-[4-(4-Methyl-piperazin-1-yl)-phenylamino]-imidazo[1,2-a]pyrazin-5-yl}-thiophene-3-carboxylic acid amide]	> 1000	–	501 to 1000
NC(=O)c1ccc(-c2cnc(Nc3ccc(OCCN4CCOCC4)cc3)c3nccn23)cc1F [Compound 146]	> 1000	–	501 to 1000
CN1CCC(Oc2ccc(Nc3ncc(-c4ccc(C(N)=O)c(F)c4)n4ccnc34)cc2)CC1 [Compound 149]	> 1000	–	> 1000
c1cn2c(-c3cn[nH]c3)cnc(Nc3ccc(OCCN4CCOCC4)cc3)c2n1 [Compound 150, [4-(2-Morpholin-4-yl-ethoxy)-phenyl]-[5-(1H-pyrazol-4-yl)-imidazo[1,2-a]pyrazin-8-yl]-amine]	501 to 1000	–	> 1000
CN1CCN(c2ccc(Nc3ncc(-c4cc(C(N)=O)co4)n4ccnc34)cc2)CC1 [Compound 151]	1 to 100	–	101 to 500
NC(=O)c1ccc(-c2cnc(Nc3ccc(-c4cccnc4)cc3)c3nccn23)cc1 [Compound 153]	> 1000	–	101 to 500
C[C@@H]1CN(c2ccc(Nc3ncc(-c4ccc(C(N)=O)cc4)n4ccnc34)cc2)C[C@H](C)N1C [Compound 155]	> 1000	–	101 to 500
NC(=O)c1ccc(-c2cnc(Nc3ccc(N4CCN(CCO)CC4)cc3)c3nccn23)cc1 [Compound 156]	501 to 1000	–	101 to 500
NC(=O)c1cnc(-c2cnc(Nc3ccc(N4CCOCC4)cc3)c3nccn23)s1 [Compound 158, 2-[8-(4-Morpholin-4-yl-phenylamino)-imidazo[1,2-a]pyrazin-5-yl]-thiazole-5-carboxylic acid amide]	> 1000	–	> 1000
